The target in one experiment is Stromelysin-2 (Homo sapiens, UniProt P09238). The experiment is described as follows: Inhibition of human MMP10 catalytic domain using Mca-Pro-Leu-Gly-Leu-Dpa-Ala-Arg-NH2 fluorogenic substrate by spectrophotometric analysis.
In the next experiment the target is Collagenase 3 (Homo sapiens, UniProt P45452). The experiment is described as follows: Inhibition of human MMP13 catalytic domain using Mca-Pro-Leu-Gly-Leu-Dpa-Ala-Arg-NH2 fluorogenic substrate by spectrophotometric analysis.
Experiment [1] concerns the target Macrophage metalloelastase (Homo sapiens) (UniProt P39900). The experiment is described as follows: Ratio of Ki for human MMP12 catalytic domain (Met105 to Lys263 residues) at pH 9.5 to Ki for human MMP12 catalytic domain (Met105 to Lys263 residues) at pH 6.
The target in experiment [2] is 72 kDa type IV collagenase (Homo sapiens) (UniProt P08253). The experiment is described as follows: Inhibition of human MMP2 catalytic domain using Mca-Pro-Leu-Gly-Leu-Dpa-Ala-Arg-NH2 fluorogenic substrate by spectrophotometric analysis.
Sequence of 72 kDa type IV collagenase (Homo sapiens) (P08253 110-660 limits assumed): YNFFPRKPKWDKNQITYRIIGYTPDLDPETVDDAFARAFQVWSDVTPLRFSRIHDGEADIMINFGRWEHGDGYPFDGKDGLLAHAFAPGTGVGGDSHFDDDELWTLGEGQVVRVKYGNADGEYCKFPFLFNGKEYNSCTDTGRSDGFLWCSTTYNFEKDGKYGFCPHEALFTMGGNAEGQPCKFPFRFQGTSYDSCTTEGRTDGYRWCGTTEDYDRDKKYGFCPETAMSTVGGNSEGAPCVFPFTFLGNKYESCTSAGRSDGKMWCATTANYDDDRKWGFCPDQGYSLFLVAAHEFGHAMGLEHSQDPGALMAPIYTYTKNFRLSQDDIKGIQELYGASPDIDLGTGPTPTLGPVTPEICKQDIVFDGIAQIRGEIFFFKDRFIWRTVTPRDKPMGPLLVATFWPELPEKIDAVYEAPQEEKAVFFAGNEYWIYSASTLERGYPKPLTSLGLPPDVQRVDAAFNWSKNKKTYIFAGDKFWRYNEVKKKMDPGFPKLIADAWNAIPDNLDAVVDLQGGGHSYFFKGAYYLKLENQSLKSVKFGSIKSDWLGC

Active and inactive are the calls of the source. The rule behind the calls is not given here.

These results are taken from ChEMBL document CHEMBL4041532, “Zinc-Metalloproteinase Inhibitors: Evaluation of the Complex Role Played by the Zinc-Binding Group on Potency and Selectivity” (J Med Chem, 2017).

Sequence of Stromelysin-2 (P09238 whole entry, the tested form may be a part): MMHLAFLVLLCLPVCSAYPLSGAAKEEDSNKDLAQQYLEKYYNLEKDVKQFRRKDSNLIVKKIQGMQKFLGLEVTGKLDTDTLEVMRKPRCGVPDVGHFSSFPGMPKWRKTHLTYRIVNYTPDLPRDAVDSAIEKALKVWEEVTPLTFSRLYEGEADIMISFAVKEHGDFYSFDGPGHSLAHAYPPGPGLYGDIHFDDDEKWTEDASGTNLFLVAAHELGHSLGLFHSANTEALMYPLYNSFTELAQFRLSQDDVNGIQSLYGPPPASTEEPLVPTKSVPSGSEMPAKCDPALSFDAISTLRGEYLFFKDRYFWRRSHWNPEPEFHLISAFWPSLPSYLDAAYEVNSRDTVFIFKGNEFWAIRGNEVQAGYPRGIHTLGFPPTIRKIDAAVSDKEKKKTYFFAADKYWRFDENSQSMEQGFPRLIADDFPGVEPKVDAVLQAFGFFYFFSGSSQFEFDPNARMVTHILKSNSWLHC
Sequence of Macrophage metalloelastase (Homo sapiens) (P39900 106-470 limits assumed): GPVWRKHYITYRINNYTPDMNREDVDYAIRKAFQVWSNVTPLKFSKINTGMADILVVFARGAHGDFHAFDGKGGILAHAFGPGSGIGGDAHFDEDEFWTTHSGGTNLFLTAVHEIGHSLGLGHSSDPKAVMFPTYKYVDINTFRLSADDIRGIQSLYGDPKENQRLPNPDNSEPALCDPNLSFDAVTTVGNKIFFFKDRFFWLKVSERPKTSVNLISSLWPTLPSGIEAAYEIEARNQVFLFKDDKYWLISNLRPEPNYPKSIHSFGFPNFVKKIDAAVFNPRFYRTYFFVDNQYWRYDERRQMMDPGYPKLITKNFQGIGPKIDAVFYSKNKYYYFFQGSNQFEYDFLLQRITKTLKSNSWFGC

By Ki is commonly meant a dissociation constant, usually derived from enzyme kinetics or from competition with a known ligand. Take `NC(=O)[C@H](CCC(=O)O)NC(=O)[C@H](CCC(=O)O)NC(=O)[C@H](Cc1cc(-c2ccc(-c3cccc(Cl)c3)cc2)no1)CP(=O)(O)c1ccc(Br)cc1`: the Ki on Stromelysin-2 was found to be 149 nM; on Collagenase 3, 139 nM. In addition, in experiment [1], the Ratio Ki stood at 1100.

For `NC(=O)[C@H](CCC(=O)O)NC(=O)[C@H](CCC(=O)O)NC(=O)[C@@H](CC(=O)O)Cc1cc(-c2ccc(-c3cccc(Cl)c3)cc2)no1`, the outcome (on Collagenase 3; in experiment [2]) was Active. The Ratio Ki in experiment [1] was found to be 980.

Take `NC(=O)[C@H](CCC(=O)O)NC(=O)[C@H](CCC(=O)O)NC(=O)[C@@H](CC(=O)NO)Cc1cc(-c2ccc(-c3cccc(Cl)c3)cc2)no1`: the Ki at Stromelysin-2 amounted to 1.4 nM; on Collagenase 3, 0.008 nM.
